What was measured:
EC4 cells [1] = assay: EU labeling and imaging of total RNA distribution (RNA export); assay type: cell-based, mouse; details: EC4 cells overexpressing MYC, 150 nM KPT-330, 5 h EU labeling, compared with DMSO controls
Protocol: EU-Labeling and Visualization of Total RNA EC4 cells were labeled with 1 mM 5-ethynyl uridine (EU) for 5h in the presence of 150 nM KPT-330 or vehicle (DMSO control) at 37 degrees and 5% CO2. Cells were then fixed with 4% formaldehyde in PBS at room temperature for 20 minutes, washed consecutively with PBS, 50 mM NH4Cl/PBS, PBS (10 minutes each) and permeabilized with 0.2% TritonX100/PBS. After washing with PBS, EU was labeled with Alexa-647-azide using the Click-IT imaging kit (Invitrogen) following the manufacturer's instructions. Images were acquired on a DMI 6000 B (Leica) epifluorescence microscope. Mean fluorescence intensities in regions of interest in the cytoplasm and in the nucleus omitting nucleoli were determined using ImageJ.

EC4 cells [2] = assay: Flow cytometric analysis of apoptosis (7-AAD/Annexin V); assay type: cell-based, mouse; details: versus DMSO
Protocol: Flow Cytometric Analysis of Apoptosis For apoptosis staining, cells were stained with 7-AAD and PE-Annexin-V (Becton Dickinson) and analyzed on a FACScan flow cytometer following manufacturer's instructions. FACS data was analyzed with FlowJo software (Tree Star). The apoptotic cell populations were defined by positive staining of both Annexin-V and 7-AAD.

[3] = IC50 determination, CellTiter-Glo cell viability, cell lines with high MYC expression; assay type: cell-based, human and mouse; details: Mus musculus; range over MYC overexpressing cancer cell lines, 72 hours
Protocol: (§1) IC50 Determination Cells were seeded at a density of 1000-2000 cells/well in 96-well plates. Cells were treated with different concentrations of KPT-330 (1:3 dilution from 10 micromolar to 0.33 nanomolar) for 72 hours. MYC expression was shut off by treating the cells with doxycycline (100ng/ml). All experiments were performed in quadruplicates. Cell viability was determined using the CellTiter-Glo Luminescent Cell Viability Assay (Promega). The IC50 was calculated using the Prism software (GraphPad). The log-transformed concentration values and the normalized luminance data were fitted to a four-parameter logistic equation to derive the IC50 value.

[4] = IC50 determination, CellTiter-Glo cell viability, low MYC liver cancer cell lines and normal fibroblasts; assay type: cell-based; details: Homo sapiens; range over normal fibroblast cell line and liver cancer cell lines with low MYC expression, 72 hours
Protocol: as §1

[5] = tested on: primary liver tumors in the LAP-tTA/tet-O-MYC mouse model
Protocol: KPT-330 Treatment In Vivo and Monitoring the Tumor Size
The KPT-330 (Selleckchem) was dissolved in vehicle (1% Pluronic F-68 and 1% PVP-K29/32, 25 mg/kg) was administered by oral gavage to tumor-bearing mice three times a week for 6 doses total. A 7T MRI for small animals was used to image tumor both before and after treatment. Tumor volume was calculated based on the T2 weighted image stacks using the Osirix software. For short-term treatment, the mice were treated with either vehicle or KPT-330 for three doses and sacrificed the following day after the third dose.
Western Blot and Immunohistochemical Analysis
The following antibodies were used for Western blotting and IHC: MYC (9E10 for Western blot and Epitomics 1472-1 for IHC), Tubulin (Sigma), Cleaved caspase 3 and phospho-Histone H3 (Cell Signaling). Immunofluorescence or bright field pictures were taken with 20× objectives on a Leica DMI6000 B microscope and quantified using MetaMorph image analysis software.

[6] = short-term treatment, three doses

Compound: O=C(/C=C\n1cnc(-c2cc(C(F)(F)F)cc(C(F)(F)F)c2)n1)NNc1cnccn1 [KPT-330]
- RNA distribution in the cytoplasm (EC4 cells [1]): significantly reduced RNA distribution in the cytoplasm
- RNA nuclear-cytoplasmic ratio (EC4 cells [1]): increased RNA nuclear-cytoplasmic ratio
- increase in apoptosis (EC4 cells [2]; EC4 cells with MYC OFF (doxycycline)): modest increase in apoptosis
- induction of tumor cell apoptosis (EC4 cells [2]; EC4 cells with MYC overexpression (MYC ON)): four-fold induction of tumor cell apoptosis
- IC50 [3]: 70 to 300 nM
- IC50 [4]: ≥ 300 nM
- reduction in tumor volume ([5]; 25 mg/kg oral gavage three times a week, 6 doses, two weeks, MRI before and after): more than 95%
- histological examination of tumor sections ([5]; H&E staining of tumor sections): only sporadic tumor cells left
- proliferation or apoptosis in adjacent liver tissues (toxicity to normal hepatocytes) ([5]; mouse, in vivo): minimal toxicity to the normal hepatocytes
- tumor cell apoptosis by cleaved caspase-3 staining [5, 6]: significantly induced apoptosis
- tumor cell proliferation by phospho-histone H3 staining [5, 6]: completely suppressed the proliferation
- tumor regression according to MRI scan ([5]; two mice with smaller tumors, 6 doses, two weeks): complete tumor regression

Reference: US11576912B2, “Target genes in MYC-driven neoplasia” (The Board of Trustees of the Leland Stanford Junior …, priority 2017, dated 2023)
